Source: patent US11203598B2, “Compounds for repressing cancer cell growth” (Institute For Cancer Research, priority 2018, dated 2021)

Experiments:
[1] = molecular target: T1, R175H p53 mutant in HCT116 p53 R175H cells (Homo sapiens, UniProt P04637, R175H); assay: Western blot of mutant p53; assay type: cell-based
T1 construct: V5 (only from the vector name pLenti6/V5); host or cells: HCT116 p53-/- cells, lentivirus infection, blasticidin-selected pooled clones
Experimental: HCT116 p53^−/− cells (previously obtained from the Vogelstein Laboratory, Johns Hopkins University) were infected with a lentivirus vector containing the p53 R175H mutant (pLenti6/V5-p53_R175H, Addgene). Cells were selected with blasticidin (8 μg/mL) containing media cultured for 10 days. Blasticidin-resistant clones (pooled clones) were screened for expression of the p53 R175H mutation by Western blot analysis with p53 DO-1 antibody.
(§1) After treatment, cells were harvested by trypsinization, washed with PBS, and lysed with RIPA buffer (Sigma-Aldrich) for 30 minutes to 1 hour at 4° C. Protein lysates were spun down and supernatant was collected. Protein quantification was performed using a Pierce™ BCA Protein Assay Kit (Thermo Fisher Scientific). 1×NuPAGE® LDS sample buffer (Thermo Fisher Scientific) and 2-Mercaptoethanol as the reducing agent (Sigma-Aldrich) were added to protein lysates, followed by boiling for 15 minutes at 95° C. Equal total protein amounts samples were loaded into NuPAGE™ Novex™ 4-12% Bis-Tris Protein Gels (1.5 mm, Thermo Fisher Scientific) and gel eletrophoresis was performed with NuPAGE™ MES SDS Running Buffer. Proteins were transferred onto an Immobilon-P membrane (PVDF, EMD Millipore) using a Bio-Rad system with a 10% Tris-Glycine and 10% methanol transfer buffer diluted in distilled and deionized water. After transfer, membranes were blocked with 10% milk in TBST solution and then incubated overnight with primary antibody, washed with TBST and incubated with secondary antibody for 1 hour. Incubations were performed in 5% milk in TBST solution. Signal was detected by using a chemiluminescent detection kit, followed by autoradiography. The following antibodies were used: p53 (DO-1, 1:1000, Santa Cruz), p73 (1:1000, Bethyl Laboratories), p21 and NOXA (1:250, EMD Millipore), DR5, FADD, cleaved caspase 3, cleaved caspase 8, cleaved PARP, and LC3B (1:1000, Cell Signaling), and β-actin (1:10000, Sigma).

[2] = test system: SW480 NOXA stable knockdown cells; assay: apoptosis assay, sub-G1 analysis; assay type: cell-based, human; conditions: 96 μM, 48 hours, NOXA stably knocked down; DMSO 3.93%
Experimental: A NOXA shRNA plasmid construct was amplified according to the manufacturer's recommendation (TRC Lentiviral Human PMAIP1 shRNA, Dharmacon). Plasmid DNA was isolated using the PureLink® HiPure Plasmid Filter Maxiprep Kit (Invitrogen) according to the manufacturer's instructions. Lentivirus production was performed by transfecting HEK293T cells at a density of 8×10^6 cells per 10 cm dish with 1.6 μg pMD2.G envelope plasmid, 3.2 μg psPAX2 packaging vector, 3.2 μg plasmid DNA, and 24 μL of Lipofectamine® Transfection reagent 2000 (Life Technologies) in a total volume of reaction of 1 mL of antibiotic free DMEM media for a period of 6-10 hours. Media was then replaced with antibiotic free DMEM. Lentiviral particles were collected between 48-72 hours. SW480 cells ([…] in a 12-well plate) were infected 1:1 (virus containing media: antibiotic free DMEM media, total volume 1 mL) for a period of 24 hours. Then, media was replaced with DMEM complete media for an additional 24 hours. At this point, cells were split and seeded (20% confluent) for selection in a 10 cm dish with puromycin (2.5 μg/mL)-containing complete DMEM media and cultured for 10 days. Puromycin containing complete media was replaced every 2-3 days. Puromycin-resistant clones were screened for knockdown of NOXA by Western blot analysis with NOXA antibody.
Apoptotic cells were quantified by sub-G1 analysis. […]

[3] = molecular target: T2, endogenous R175H p53 in RXF393 renal cancer cells (Homo sapiens, UniProt P04637, R175H); assay: Western blot of mutant p53; assay type: cell-based
T2 construct: RXF393 renal cancer cells that endogenously express R175H p53; endogenous in cells; host or cells: RXF393 renal cancer cells
Experimental: as §1, with “The following antibodies were used: p53 (DO-1, 1:1000, Santa Cruz), p73 (1:1000, Bethyl Laboratories), p21 and NOXA (1:250, EMD Millipore), DR5, FADD, cleaved caspase 3, cleaved caspase 8, cleaved PARP, and LC3B (1:1000, Cell Signaling), and β-actin (1:10000, Sigma).” left out

[4] = test system: SW480 cells; assay: colony formation assay; assay type: cell-based, human; conditions: 50 μM for 24 hours, then 15 days drug-free
Experimental: (§2) Cells were seeded in 6-well plates at a density of 500 cells per well. Cells were treated with CB002 small molecule for 24 hours. Then, cells were cultured in drug-free complete media for 15 days. During the course of 15 days, the media was changed every 2-3 days. At the end of the two weeks, media was removed, wells were washed twice with Dulbecco's phosphate buffered saline (PBS) and the colonies were fixed and stained with 10% methanol and 0.25% crystal violet (Sigma-Aldrich) for 30 minutes. Wells were then carefully washed with distilled and deionized water and allowed to dry.
(§3) To further validate CB002 as a candidate therapeutic, its capability to affect cell growth was determined by analyzing cancer cell colony formation. Colony formation assays are widely used to determine the ability of a single cell to proliferate and form a colony in culture. This method offers the advantage of elucidating the sensitivity of cells towards cytotoxic agents in a long-term assay that may mimic the response seen in mouse models. […] Referring to FIG. 3, cells were treated with 50 μM of CB002 for a period of 24 hours, at which point media was replaced with complete media for a period of 15 days. Images are from one of three replicates.

[5] = test system: p73 DLD-1 stable knockdown cells; assay: colony formation assay; assay type: cell-based, human; conditions: 50 μM for 24 hours, then 15 days drug-free
Experimental: as §2, §3

[6] = test system: DLD-1 cells; assay: colony formation assay; assay type: cell-based, human; conditions: 50 μM for 24 hours, then 15 days drug-free
Experimental: as §2, §3

[7] = test system: WI38 normal cells; assay: apoptosis assay, sub-G1 analysis (propidium iodide, flow cytometry); assay type: cell-based, human
Experimental: Apoptotic cells were quantified by sub-G1 analysis. Cells were seeded at a density of 2.5×10^5 to 5×10^5 in a 6-well plate and treated for 48-72 hours. After treatment, adherent cells were trypsinized and collected along with floating cells, washed with PBS and fixed in 70% ethanol. Cells were then incubated in a Phosphate-citric acid buffer (0.2 M Na2HPO4+0.1 M Citric Acid, pH 7.8) at room temperature for 5 minutes, spun down and resuspended for staining with 50 μg/mL propidium iodide (PI) in the presence of 250 μg/mL pancreatic ribonuclease (RNase A). Sub-G1 analyses were performed using an Epics Elite Epics flow cytometer (Coulter-Beckman).
Cells were seeded out at 1×10^6 cells/well on six well plates and treated with CB002 and Analog 11 at ranging doses with DMSO controls. Cells were harvested after 72 hours of treatment, all cells including floating cells were fixed with ethanol and stained with Propidium Iodide and then analyzed using Epics Elite flow cytometer to measure the DNA content of the stained cells.

Cn1c(=O)c2[nH]c(Nc3ccccc3)nc2n(C)c1=O [CB002, 8-anilino-1,3-dimethyl-3,7-dihydro-1H-purine-2,6-dione]
R175H mutant p53 protein expression ([1]; 50 and 100 μM, 16 and 24 hours, versus DMSO): decrease in mutant p53 protein expression
R175H p53 mutant protein expression ([1]; 50 or 100 μM with MDM2 inhibitor Nutlin-3A, 24 hours): still resulted in reduction of R175H p53 mutant protein expression
R175H mutant p53 protein expression ([1]; co-treatment with chloroquine, 16 and 24 hours): did not rescue R175H mutant p53 protein expression
R175H mutant p53 protein expression ([1]; with proteasome inhibitor MG132 (5 and 10 μM), 24 hours): appeared to rescue R175H mutant p53 protein expression
sub-G1 content [2]: 3.7%
mutant p53 degradation, with Ganetespib ([3]; 96 μM CB002 and/or 0.1 μM Ganetespib, 16 hours): enhanced CB002-mediated mutant p53 degradation
R175H p53 mutant expression ([3]; 100 and 150 μM, 16 and 24 hours): decrease R175H p53 mutant expression
colony formation [4]: significantly decreases colony formation
colony formation [5]: significantly decreases colony formation
colony formation [6]: significantly decreases colony formation
sub-G1 population ([7]; 96 μM, 48 hours, DMSO control 7.6%): 9.8%
sub-G1 fraction ([7]; 200 μM, 72 hours): relatively unchanged
